From ChEMBL document CHEMBL6127035, “Novel pyridazinone derivatives bind to KSRP: Synthesis, anti-tumor biological evaluations and modelling insights” (Eur J Med Chem, 2024)
Values belong to the compound of their own block, whether it stands above or below them. The source made the active and inactive calls. No cut-off for these calls is given here.

Experiments:
[1] = tested on: 4T1; assay: Antiproliferative activity against mouse 4T1 cells assessed as reduction in cell viability incubated for 2 days by MTT assay; type: functional, cell-based; conditions: 4T1, 48 h
[2] = tested on: MDA-MB-231; assay: Antiproliferative activity against human MDA-MB-231 cells assessed as reduction in cell viability incubated for 2 days by MTT assay; type: functional, cell-based; conditions: MDA-MB-231, 48 h
[3] = tested on: MCF7; assay: Antiproliferative activity against human MCF7 cells assessed as reduction in cell viability incubated for 2 days by MTT assay; type: functional, cell-based; conditions: MCF7, 48 h
[4] = molecular target: T1, Far upstream element-binding protein 2 (Homo sapiens) (UniProt Q92945); assay: Binding affinity to recombinant full-length KSRP (unknown origin) by SPR analysis
T1 sequence (whole entry): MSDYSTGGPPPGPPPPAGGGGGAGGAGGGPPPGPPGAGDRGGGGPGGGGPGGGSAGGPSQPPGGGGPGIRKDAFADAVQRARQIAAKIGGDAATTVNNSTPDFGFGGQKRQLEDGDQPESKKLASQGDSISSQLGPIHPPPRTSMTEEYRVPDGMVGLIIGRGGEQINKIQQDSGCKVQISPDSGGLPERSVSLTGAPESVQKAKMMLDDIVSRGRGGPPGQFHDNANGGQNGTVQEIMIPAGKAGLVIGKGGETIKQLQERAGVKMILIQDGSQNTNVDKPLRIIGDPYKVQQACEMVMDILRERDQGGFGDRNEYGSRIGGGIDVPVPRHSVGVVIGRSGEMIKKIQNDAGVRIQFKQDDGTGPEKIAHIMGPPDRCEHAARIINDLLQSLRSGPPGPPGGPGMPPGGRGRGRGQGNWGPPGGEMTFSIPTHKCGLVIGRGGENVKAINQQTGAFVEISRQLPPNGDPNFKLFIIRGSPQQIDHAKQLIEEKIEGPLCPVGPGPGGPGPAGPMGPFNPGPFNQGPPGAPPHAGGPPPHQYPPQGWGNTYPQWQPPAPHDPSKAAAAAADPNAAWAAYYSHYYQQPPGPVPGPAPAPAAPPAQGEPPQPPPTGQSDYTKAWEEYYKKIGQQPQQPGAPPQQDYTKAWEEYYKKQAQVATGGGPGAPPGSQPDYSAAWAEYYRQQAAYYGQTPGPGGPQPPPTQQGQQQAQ

[5] = molecular target: T2, Far upstream element-binding protein 2 (Homo sapiens, UniProt Q92945); assay: Binding affinity to recombinant full-length KSRP (unknown origin) assessed as dissociation constant by SPR analysis
T2 sequence (Q92945 whole entry): T1 sequence (whole entry)

[6] = tested on: NCI-H460; assay: Antiproliferative activity against human NCI-H460 cells assessed as reduction in cell viability incubated for 2 days by MTT assay; type: functional, cell-based; conditions: NCI-H460, 48 h
[7] = tested on: HCT-116; assay: Antiproliferative activity against human HCT-116 cells assessed as reduction in cell viability incubated for 2 days by MTT assay; type: functional, cell-based; conditions: HCT-116, 48 h
[8] = Cytotoxicity against human L02 cells assessed as reduction in cell viability incubated for 2 days by MTT assay; type: toxicity, cell-based
[9] = tested on: U-87 MG; assay: Antiproliferative activity against human U-87 MG cells assessed as reduction in cell viability incubated for 2 days by MTT assay; type: functional, cell-based, U-87MG ATCC; conditions: 48 h
[10] = tested on: MIA PaCa-2; assay: Antiproliferative activity against human MIA PaCa-2 cells assessed as reduction in cell viability incubated for 2 days by MTT assay; type: functional, cell-based; conditions: MIA PaCa-2, 48 h
[11] = tested on: A549; assay: Antiproliferative activity against human A549 cells assessed as reduction in cell viability incubated for 2 days by MTT assay; type: functional, cell-based; conditions: A549, 48 h
[12] = tested on: KB; assay: Antiproliferative activity against human KB cells assessed as reduction in cell viability incubated for 2 days by MTT assay; type: functional, cell-based; conditions: 48 h
[13] = molecular target: T1, Far upstream element-binding protein 2 (Homo sapiens); assay: Binding affinity to KSRP KH23 domain (214 to 413 residues) (unknown origin) extracted from Escherichia coli incubated overnight by SDS-PAGE based immunoblot analysis
[14] = molecular target: T1, Far upstream element-binding protein 2 (Homo sapiens); assay: Binding affinity to full length KSRP (unknown origin) incubated overnight by SDS-PAGE based immunoblot analysis
[15] = molecular target: T1, Far upstream element-binding protein 2 (Homo sapiens); assay: Binding affinity to full-length KSRP (1 to 715 residues) (unknown origin) extracted from Escherichia coli incubated overnight by SDS-PAGE based immunoblot analysis
[16] = tested on: MCF7; assay: Antiproliferation against human MCF7 cells assessed as effect on cell proliferation at 0.625 uM incubated for 2 days by MTT assay; type: functional, cell-based; conditions: time 2.0 day
[17] = tested on: MCF7; assay: Induction of DNA double-strand breaks in human MCF7 cells assessed as enlarged nucleus at 10 uM incubated for 24 hrs by Hoechst 33342 staining based fluorescence microscopic analysis; type: functional, cell-based
[18] = tested on: MCF7; assay: Induction of morphological changes in human MCF7 cells assessed as cell membrane blebbing at 10 uM measured after 6 hrs by bright field microscopic; type: functional, cell-based
[19] = tested on: MCF7; assay: Induction of apoptosis in human MCF7 cells assessed as late apoptotic cells at 0.62 uM incubated for 48 hrs by Annexin V-FITC/PI staining based flow cytometric analysis (reference value: 4.32 %); type: functional
[20] = tested on: MCF7; assay: Induction of ROS accumulation in human MCF7 cells assessed as increase in green fluorescence at 5 uM incubated for 24 hrs by DCFH-DA staining based automated microscopic immunofluorescence analysis; type: functional, cell-based
[21] = tested on: Mitochondrial membrane; assay: Induction of mitochondrial membrane potential loss in human MCF7 cells assessed as increase in green fluorescence at 10 uM incubated for 24 hrs by JC-1 staining based automated microscopic immunofluorescence analysis; type: cell membranes
[22] = tested on: MCF7; assay: Induction of apoptosis in human MCF7 cells assessed as late apoptotic cells at 2.5 uM incubated for 48 hrs by Annexin V-FITC/PI staining based flow cytometric analysis (reference value: 4.32 %); type: functional
[23] = tested on: MCF7; assay: Induction of apoptosis in human MCF7 cells assessed as early apoptotic cells at 1.25 uM incubated for 48 hrs by Annexin V-FITC/PI staining based flow cytometric analysis (reference value: 5.12 %); type: functional
[24] = tested on: MDA-MB-231; assay: Inhibition of colony formation in human MDA-MB-231 cells assessed as reduction in colony count incubated for 2 weeks by crystal violet staining based analysis; type: functional, cell-based
[25] = tested on: MCF7; assay: Induction of apoptosis in human MCF7 cells assessed as late apoptotic cells at 1.25 uM incubated for 48 hrs by Annexin V-FITC/PI staining based flow cytometric analysis (reference value: 4.32 %); type: functional
[26] = tested on: MCF7; assay: Induction of apoptosis in human MCF7 cells assessed as viable cells at 1.25 uM incubated for 48 hrs by Annexin V-FITC/PI staining based flow cytometric analysis (reference value: 89.3 %); type: functional; conditions: read-out: Activity
[27] = Acute toxicity in BALB/c nu/nu mouse assessed as mortality rate at 30 mg/kg, ip administered for 7 days relative to control; type: organism-based; conditions: in vivo, time 7 day
[28] = tested on: MCF7; assay: Induction of apoptosis in human MCF7 cells assessed as early apoptotic cells at 0.62 uM incubated for 48 hrs by Annexin V-FITC/PI staining based flow cytometric analysis (reference value: 5.12 %); type: functional
[29] = tested on: MCF7; assay: Induction of apoptosis in human MCF7 cells assessed as necrotic cells at 1.25 uM incubated for 48 hrs by Annexin V-FITC/PI staining based flow cytometric analysis (reference value: 1.22 %); type: functional
[30] = tested on: MCF7; assay: Induction of DNA double-strand breaks in human MCF7 cells assessed as increase in gamma-H2AX foci formation at 10 uM incubated for 24 hrs by […] fluorescence microscopic analysis; type: functional, cell-based
[31] = tested on: MCF7; assay: Induction of apoptosis in human MCF7 cells assessed as necrotic cells at 2.5 uM incubated for 48 hrs by Annexin V-FITC/PI staining based flow cytometric analysis (reference value: 1.22 %); type: functional
[32] = tested on: MCF7; assay: Induction of DNA double-strand breaks in human MCF7 cells assessed as increase in gamma-H2AX expression incubated for 24 hrs by Western blotting; type: functional, cell-based
[33] = tested on: MCF7; assay: Inhibition of cell migration in human MCF7 cells assessed as reduction in wound healing index at 0.625 uM measured after 72 hrs by scratch assay; type: functional, cell-based
[34] = tested on: MCF7; assay: Induction of apoptosis in human MCF7 cells assessed as viable cells at 2.5 uM incubated for 48 hrs by Annexin V-FITC/PI staining based flow cytometric analysis (reference value: 89.3 %); type: functional; conditions: read-out: Activity
[35] = tested on: MCF7; assay: Induction of apoptosis in human MCF7 cells assessed as early apoptotic cells at 2.5 uM incubated for 48 hrs by Annexin V-FITC/PI staining based flow cytometric analysis (reference value: 5.12 %); type: functional
[36] = tested on: MCF7; assay: Induction of apoptosis in human MCF7 cells assessed as viable cells at 0.62 uM incubated for 48 hrs by Annexin V-FITC/PI staining based flow cytometric analysis (reference value: 89.3 %); type: functional; conditions: read-out: Activity
[37] = tested on: MCF7; assay: Induction of DNA double-strand breaks in human MCF7 cells assessed as appearance of nuclear fragments at 10 uM incubated for 24 hrs by Hoechst 33342 staining based fluorescence microscopic analysis; type: functional, cell-based
[38] = tested on: MDA-MB-231; assay: Inhibition of cell migration in human MDA-MB-231 cells assessed as reduction in wound healing index measured after 72 hrs by scratch assay; type: functional, cell-based
[39] = tested on: MCF7; assay: Induction of apoptosis in human MCF7 cells assessed as necrotic cells at 0.62 uM incubated for 48 hrs by Annexin V-FITC/PI staining based flow cytometric analysis (reference value: 1.22 %); type: functional
[40] = tested on: MCF7; assay: Inhibition of colony formation in human MCF7 cells assessed as reduction in colony count incubated for 2 weeks by crystal violet staining based analysis; type: functional, cell-based; conditions: dose 1.25-2.5 µM

IC50 [6]: 1.04 µM
IC50 [7]: 0.47 µM
IC50 [1]: 1.72 µM
IC50 [9]: 0.58 µM
IC50 [10]: 0.39 µM
IC50 [11]: 1.26 µM
IC50 [2]: 6.08 µM
IC50 [3]: 4.96 µM
IC50 [12]: 0.47 µM
SMILES: COCCNS(=O)(=O)c1ccc(-n2ncc(Cl)c(Cl)c2=O)cc1
IC50 at 2 days [8]: 4.07 µM

Activity [13]: Active
IC50 [1]: 2.15 µM
Activity [14]: Active
Kd [5]: 17.7 µM
Activity [15]: Active
IC50 [10]: 3.22 µM
IC50 [2]: 2.55 µM
IC50 [3]: 8.28 µM
IC50 [12]: 6.77 µM
SMILES: O=C(CCCC[C@@H]1SC[C@@H]2NC(=O)N[C@@H]21)NCCCCNS(=O)(=O)c1ccc(-n2ncc(Cl)c(Cl)c2=O)cc1

IC50 [1]: 1.8 µM
IC50 [2]: > 10 µM
IC50 [3]: > 10 µM
SMILES: CCN(CCOC)S(=O)(=O)c1ccc(-n2ncc(Cl)c(Cl)c2=O)cc1

Further lines, the compound ahead of its results:

SMILES: CCN(CCOCCNC(=O)OC(C)(C)C)S(=O)(=O)c1ccc(-n2ncc(Cl)c(Cl)c2=O)cc1
IC50 [1]: > 10 µM
IC50 [2]: 27.2 µM
IC50 [3]: > 20 µM

SMILES: COCC(C)NS(=O)(=O)c1ccc(-n2ncc(Cl)c(Cl)c2=O)cc1 (stereo unspecified)
Activity [4]: Dose-Dependent Effect
IC50 [1]: 4.04 µM
Kd [5]: 38.3 µM
IC50 [2]: 16.1 µM
IC50 [3]: 8.17 µM

SMILES: CCN(C)S(=O)(=O)c1ccc(-n2ncc(Cl)c(Cl)c2=O)cc1
IC50 [1]: 11.3 µM
IC50 [2]: > 50 µM
IC50 [3]: 4.1 µM

SMILES: CN(CCN(C)S(=O)(=O)c1ccc(-n2ncc(Cl)c(Cl)c2=O)cc1)S(=O)(=O)c1ccc(-n2ncc(Cl)c(Cl)c2=O)cc1
IC50 [1]: > 10 µM
IC50 [2]: > 50 µM
IC50 [3]: > 20 µM

SMILES: CN(C)CCN(C)S(=O)(=O)c1ccc(-n2ncc(Cl)c(Cl)c2=O)cc1
IC50 [6]: 0.53 µM
Activity [16]: inactive
Activity [17]: Active
Activity [18]: Active
IC50 [7]: 0.67 µM
IC50 [1]: 1.15 µM
Activity [19]: 4.7%
Activity [20]: Active
Activity [21]: Active
Activity [22]: 6.94%
Activity [23]: 9.53%
inhibition [24]: Active
Activity [25]: 5.47%
IC50 at 2 days [8]: 4.97 µM
viability at 1.25 µM [26]: 83.5%
mortality at 168 h [27]: 100%
Activity [28]: 8.46%
Activity [29]: 1.48%
Activity [30]: Active
Activity [31]: 0.71%
Activity [32]: Dose-Dependent Effect
inhibition [33]: Active
IC50 [9]: 0.36 µM
IC50 [10]: 0.39 µM
viability at 2.5 µM [34]: 75.3%
Activity [35]: 17%
viability at 0.62 µM [36]: 85.5%
Activity [37]: Active
IC50 [11]: 1 µM
IC50 [2]: 9.16 µM
inhibition [38]: Active
IC50 [3]: 3.79 µM
Activity [39]: 1.3%
inhibition [40]: Dose-Dependent Effect
IC50 [12]: 0.22 µM
